# US12616751B2, “Photosensitizing antibody-fluorophore conjugates” (The USA, as represented by the Secretary, Department of …, priority 2010, dated 2026)
# “And” between values parts separate entries of the source, which are not always exact repeats. Equal entries are not always repeated. “Also recorded” adds a separate entry of the source.
# Key:
# A431 cells = format: cell-based
# Experimental: EGFR-expressing A431 cells were used as the target HER1+ cells. […] Cells were grown in RPMI 1640 supplemented with 10% fetal bovine serum and 1% penicillin/streptomycin in tissue culture flasks in a humidified incubator at 37° C. in an atmosphere of 95% air and 5% carbon dioxide. A431 or Balb/3T3/DsRed cells were seeded on cover glass-bottomed dishes and incubated for 24 hours. Pan-IR700 was added to the culture medium at 10 μg/mL and incubated either for 1 hour on ice or 6 hours at 37° C., then cells were washed with PBS. Culture medium was replaced with phenol red-free medium after washing with phosphate buffered saline (PBS).
# PIT was performed as described in Examples 2 and 3.
# 3T3/HER2 tumor = test: In vivo fluorescence imaging of Pan-IR700 in HER1 negative tumor; design: species or system mice; conditions: mouse, listed as Pan-1R700
# Experimental: To confirm antigen specific localization of Pan-IR700, 1×10^6 of 3T3/HER2 cells (HER1 negative) were injected subcutaneously in the right dorsum at the same time of A431 cells injection. […] Regions of interest (ROI) for both tumor and background were placed for equivalent sized areas containing the same number of pixels. Tumor to background ratio (TBR) was calculated using the following formula: TBR=((mean tumor intensity)−(mean background intensity))/((mean non-tumor intensity)−(mean background intensity)).
# MDA-MB-468 cells = test: In vitro PIT, microscopy before and after; format: cell-based
# Experimental: For photoimmunotherapy (PIT), cells were seeded on 35 mm cover glass-bottomed dishes and incubated 24 hours. […] Culture medium was replaced with phenol red-free medium after washing with phosphate buffered saline (PBS). Cells were irradiated with light at 670 nm to 690 nm using a red light emitting diode (LED; FluorVivo; INDEC Systems Inc., Capitola, Calif.) with a power density of 2.6 mW cm^−2 as measured with optical power meter (PM 100, Thorlabs, Newton, N.J.). Cell viability was assessed 1 hour after treatment with LIVE/DEAD® Fixable Green Dead Cell Stain Kit (Invitrogen). After the treatment, cells were trypsinized and washed with PBS. Green fluorescent reactive dye was added in the cell suspension and incubated at room temperature for 30 minutes. Cells were then analyzed on flow cytometer (FACS Calibur, BD BioSciences, San Jose, Calif.).
# This example describes additional results showing that the disclosed antibody-IR700 compounds selectively kill cells that express the appropriate protein. The photoimmunotherapy (PIT) methods are described in Example 2.
# A431 tumors [1] = test: In vivo FLT imaging after PIT; design: species or system mice
# Experimental: Reagents. […] All other chemicals used were of reagent grade. […] Then the mixture was purified with a Sephadex G50 column (PD-10; GE Healthcare). The protein concentrations were determined with Coomassie Plus protein assay kit (Pierce Biotechnology) by measuring light absorption at 595 nm (8453 Value System; Agilent Technologies). […] The number of IR700 per antibody was approximately 4 for the 1:4.5 reaction conditions. The addition of 0.4% SDS to the sample dissociated the fluorophores from each other, effectively causing dequenching. Quenching efficiency (QE) for a particular conjugation is defined as the fluorescence intensity with SDS divided by fluorescence intensity without SDS. […] Pan-1R700 was kept at 4° C. in the refrigerator as a stock solution. Fluorescence lifetime measurements. FLT experiments were performed with the eXplore OptixTm-MX2 system (ART Advanced Research Technologies, Inc.) (Hutchinson et al., Biophys J 68:1574-82, 1995; Ma et al., Appl Opt 46:1650-7, 2007). A fixed pulsed laser diode was used as an excitation source at a wavelength of 670 nm. Region of interest (ROI) measurements with a spot size of 1.5 mm were selected at the image plane. […] Lifetime analysis was performed by using the ART OptiView (ART Advanced Research Technologies, Inc.). Lifetime values and lifetime mapping were calculated to fit fluorescence temporal point-spread functions (TPSFs) as single-exponential models with the Fit TPSF tool. Photoimmunotherapy for in vitro and in vivo models. PIT was performed with a red light-emitting diode (LED) light at 680 to 700 nm wavelength (Tech-LED, Marubeni America Co.) (Mitsunaga et al., Bioconjug Chem. 23:604-9, 2012). Power densities were measured with an optical power meter (PM 100, Thorlabs). Determination of FLT for Pan-IR700. Samples of Pan-IR700 at concentrations of 2.5, 5, 20, 40 pg/mL were prepared by dilution with PBS. The fluorescence intensities and lifetimes of each sample were determined using the Optix MX2 system at room temperature within a 1.7 ml centrifuge tube. To investigate the effect of PIT using Pan-1R700, the FLT of each sample at the concentration of 50 pg/mL was measured after irradiating the samples at a PIT dose of 0, 2, 4, 8, 15, 30 J/cm2. Cell line. […] The cell line was grown in RPMI 1640 (Life Technologies) containing 10% fetal bovine serum (Life Technologies), 0.03% L-glutamine, 100 units/mL penicillin, and 100 μg/mL streptomycin in 5% CO2 at 37° C. Cell pellet FLT studies A431. Cells were plated on […] cell culture flasks and incubated until confluent. Then Pan-IR700 conjugate was added to the media (1 pg/mL), and cells were incubated for 24 h at 37° C. Upon completion of incubation, cells were removed from the flasks, and centrifuged to obtain pellets. The resulting cell pellets were washed with PBS×3 and placed in 1.7 mL centrifuge tubes. The fluorescence intensities and lifetimes of each sample were then obtained. […] After that, these pellets were gently washed with PBS×1 and fluorescence intensity and lifetime images were obtained. To detect the antigen specific localization of IR700 and to confirm the morphological changes of A431 cells before and after PIT, fluorescence microscopy was performed using Olympus BX61 microscope (Olympus America) equipped with the following filters: a 590-650 nm excitation filter, a 665-740 nm band pass emission filter. […]
# A431 tumors [2] = test: Histological analysis immediately after PIT; format: in vivo, mice
substance,measurement,setting,value
Pan-IR700: Panitumumab (anti-human EGFR IgG2 MAb) conjugated to IR700; about 3 to 4 IR700 per antibody,cytotoxicity without excitation light,A431 cells,no significant cytotoxicity
same,cell death after irradiation,A431 cells; 0.5 to 2 J cm^−2,rapid cell death in a dose-dependent manner
same,cell killing by PIT (microscopy),A431 cells; FIG. 8,specifically killed
same,target-specific phototoxicity in co-culture,A431 cells; co-cultured with Balb/3T3/DsRed (HER1 negative) cells,Target-specific phototoxicity was also confirmed
same,fluorescence of HER1 negative tumor,3T3/HER2 tumor,the same as that of background; also recorded: did not show detectable fluorescence
same,cell killing by PIT (microscopy),MDA-MB-468 cells,specifically killed
same,FLT shortening compared with untreated control,"A431 tumors [1]; 10 J/cm^2, 48 hours after PIT",7.7%
same,"FLT immediately after PIT, compared with no treatment controls",A431 tumors [1]; 30 J/cm^2,61.5+/−5.1% and 61.5 ± 15.1%
same,"FLT immediately after PIT, of untreated tumors in the same mouse",A431 tumors [1]; 30 J/cm^2,61.5%+/−5.05
same,"FLT immediately after PIT, compared with no treatment controls",A431 tumors [1]; 50 J/cm^2,69.1+/−10.9%
same,"FLT immediately after PIT, of untreated tumors in the same mouse",A431 tumors [1]; 50 J/cm^2,69.0%+110.92
same,necrosis (H-E histology),A431 tumors [2]; 10 J/cm^2,necrotic cell damage was found in only limited areas
same,necrosis (H-E histology),A431 tumors [2]; 30 or 50 J/cm^2,Necrotic damage was diffuse and intense
